Experimental data as given in patent US9469617B2, “Molecules having certain pesticidal utilities, and intermediates, compositions, and processes related thereto” (priority 2014, dated 2016).
Counter-ions that a name gives are not always drawn. Like-named read-outs stand apart in the source and are kept apart here.

How the values were obtained:
Type in all cases: in vivo
[1] = system: Cabbage Looper (CL) (Trichoplusia ni); assay: Bioassay on Cabbage Looper (CL), 128-well diet tray assay; conditions: 168 h, read-out: CL % Control (or Mortality) rating
Description: (§1) Certain molecules disclosed in this document were tested against BAW and CL using procedures described in the following examples. In the reporting of the results, the “BAW & CL Rating Table” was used (See Table Section).
Bioassays on CL were conducted using a 128-well diet tray assay. One to five second instar CL larvae were placed in each well (3 mL) of the diet tray that had been previously filled with 1 mL of artificial diet to which 50 μg/cm^2 of the test compound (dissolved in 50 μL of 90:10 acetone-water mixture) had been applied (to each of eight wells) and then allowed to dry. Trays were covered with a clear self-adhesive cover, and held at 25° C., 14:10 light-dark for five to seven days. Percent mortality was recorded for the larvae in each well; activity in the eight wells was then averaged. The results are indicated in the table entitled “Table ABC: Assay Results” and “Table ABCD: Assay Results” (See Table Section).

[2] = system: Beet Armyworm (BAW) (Spodoptera exigua); assay: Bioassay on Beet Armyworm (BAW), 128-well diet tray assay; conditions: 168 h, read-out: BAW % Control (or Mortality) rating
Description: as §1
Bioassays on BAW were conducted using a 128-well diet tray assay. one to five second instar BAW larvae were placed in each well (3 mL) of the diet tray that had been previously filled with 1 mL of artificial diet to which 50 μg/cm^2 of the test compound (dissolved in 50 μL of 90:10 acetone-water mixture) had been applied (to each of eight wells) and then allowed to dry. Trays were covered with a clear self-adhesive cover, and held at 25° C., 14:10 light-dark for five to seven days. Percent mortality was recorded for the larvae in each well; activity in the eight wells was then averaged. The results are indicated in the tables entitled “Table ABC: Assay Results” and “Table ABCD: Assay Results” (See Table Section).

[3] = system: Yellow Fever Mosquito (YFM) (Aedes aegypti); assay: Bioassay on Yellow Fever Mosquito (YFM) larvae, 96-well plate; conditions: about 1 day-old larvae, master plate 4000 ppm in DMSO diluted, scored on mortality after 3 days
Description: Certain molecules disclosed in this document were tested against YFM using procedures described in the following paragraph. In the reporting of the results, the “GPA & YFM Rating Table” was used (See Table Section).
Master plates containing 400 μg of a molecule dissolved in 100 μL of dimethyl sulfoxide (DMSO) (equivalent to a 4000 ppm solution) are used. A master plate of assembled molecules contains 15 μL per well. To this plate, 135 μL of a 90:10 water:acetone mixture is added to each well. A robot (Biomek® NXP Laboratory Automation Workstation) is programmed to dispense 15 μL aspirations from the master plate into an empty 96-well shallow plate (“daughter” plate). There are 6 reps (“daughter” plates) created per master. The created daughter plates are then immediately infested with YFM larvae.
The day before plates are to be treated, mosquito eggs are placed in Millipore water containing liver powder to begin hatching (4 g. into 400 mL). After the daughter plates are created using the robot, they are infested with 220 μL of the liver powder/larval mosquito mixture (about 1 day-old larvae). After plates are infested with mosquito larvae, a non-evaporative lid is used to cover the plate to reduce drying. Plates are held at room temperature for 3 days prior to grading. After 3 days, each well is observed and scored based on mortality.

[4] = Table ABCD, 50 μg/cm^2 on artificial diet, second instar larvae, five to seven days, 25° C.
[5] = Table ABC, 50 μg/cm^2 on artificial diet, second instar larvae, five to seven days, 25° C.

Q: For `CC(C)(C)OC(=O)NC1Cc2ccc(-c3ncn(-c4ccc(OC(F)(F)C(F)(F)F)cc4)n3)cc2C1` (centres unmarked) [C2, tert-butyl (5-(1-(4-(perfluoroethoxy)phenyl)-1H-1,2,4-triazol-3-yl)-2,3-dihydro-1H-inden-2-yl)carbamate], which mortality at 50 µg/cm2 [1, 4] is on record?
A: 50 to 100%

Q: What about the mortality at 50 µg/cm2 [2, 4] of the same compound?
A: 50 to 100%

Q: What does the source list for `NC1Cc2ccc(-c3ncn(-c4ccc(OC(F)(F)F)cc4)n3)cc2C1` (centres unmarked) [C3, 5-(1-(4-(trifluoromethoxy)phenyl)-1H-1,2,4-triazol-3-yl)-2,3-dihydro-1H-inden-2-amine dihydrochloride]?
A: YFM % Control (or Mortality) rating ([3]; Table ABCD): A (80-100); mortality at 50 µg/cm2 [1]: 50 to 100%; mortality at 50 µg/cm2 [2]: 50 to 100%

Q: `NC1Cc2ccc(-c3ncn(-c4ccc(OC(F)(F)F)cc4)n3)cc2C1.O=C(O)C(F)(F)F` (centres unmarked) [C4, 5-(1-(4-(trifluoromethoxy)phenyl)-1H-1,2,4-triazol-3-yl)-2,3-dihydro-1H-inden-2-amine 2,2,2-trifluoroacetate] was tested. Which “YFM % Control (or Mortality) rating” value ([3]; Table ABCD) did it give?
A: D (No activity noticed in this bioassay)

Q: Which “YFM % Control (or Mortality) rating” value ([3]; Table ABCD) does the source give for `C=C(C)c1ccc(Cl)cc1[N+](=O)[O-]` [C8, 4-Chloro-2-nitro-1-(prop-1-en-2-yl)benzene] here?
A: D (No activity noticed in this bioassay)

Q: How did the “YFM % Control (or Mortality) rating” value ([3]; Table ABCD) turn out when `CCc1ccc(C)cc1NC(=S)NC(=O)c1ccccc1` [C17, N-((2-Ethyl-5-methylphenyl)carbamothioyl)benzamide] was run?
A: D (No activity noticed in this bioassay)

Q: For `COc1ccc(C(C)C)c(NC(=S)NC(=O)c2ccccc2)c1` [C18, N-((2-Isopropyl-5-methoxyphenyl)carbamothioyl)benzamide], which “YFM % Control (or Mortality) rating” value ([3]; Table ABCD) is on record?
A: D (No activity noticed in this bioassay)

Q: With `CCCc1ccc(C)cc1NC(N)=S` [C20, 1-(5-methyl-2-propylphenyl)thiourea] as the compound, how does the “YFM % Control (or Mortality) rating” value ([3]; Table ABCD) read?
A: D (No activity noticed in this bioassay)

Q: Which “YFM % Control (or Mortality) rating” value ([3]; Table ABCD) does the source give for `CCc1ccc(C)cc1NC(N)=S` [C22, 1-(2-Ethyl-5-methylphenyl)thiourea] here?
A: D (No activity noticed in this bioassay)

Q: `Cc1ccc(C(C)C)c(N2C(=N)SCC2=O)c1` [C29, 2-imino-3-(2-isopropyl-5-methylphenyl)thiazolidin-4-one] was tested. Which “YFM % Control (or Mortality) rating” value ([3]; Table ABCD) did it give?
A: B (More than 0-Less than 80)

Q: And the mortality at 50 µg/cm2 [1, 4]?
A: 50 to 100%

Q: And the mortality at 50 µg/cm2 [2, 4]?
A: 0 to 50%

Q: With `Cc1ccc(C(C)C)c(N2C(=O)CS/C2=N\C(=O)Oc2ccc([N+](=O)[O-])cc2)c1` [C30, (Z)-4-nitrophenyl (3-(2-isopropyl-5-methylphenyl)-4-oxothiazolidin-2-ylidene)carbamate] as the compound, how does the “YFM % Control (or Mortality) rating” value ([3]; Table ABCD) read?
A: D (No activity noticed in this bioassay)

Q: And the mortality at 50 µg/cm2 [2]?
A: 0%

Q: `Cc1ccc(C(C)C)c(NC(=S)NC(=O)NC2Cc3ccc(-c4ncn(-c5ccc(OC(F)(F)F)cc5)n4)cc3C2)c1` (centres unmarked) [F1, 1-[(2-isopropyl-5-methyl-phenyl)carbamothioyl]-3-[5-[1-[4-(trifluoromethoxy)phenyl]-1,2,4-triazol-3-yl]indan-2-yl]urea] was tested. Which “YFM % Control (or Mortality) rating” value ([3]; Table ABC) did it give?
A: A (80-100)

Q: What about the mortality at 50 µg/cm2 [1, 5] of the same compound?
A: 50 to 100%

Q: What about the mortality at 50 µg/cm2 [2, 5] of the same compound?
A: 50 to 100%

Q: Which “YFM % Control (or Mortality) rating” value ([3]; Table ABC) does the source give for `Cc1ccc(C(C)C)c(NC(=S)NC(=O)NC2Cc3ccc(-c4ncn(-c5ccc(OC(F)(F)C(F)(F)F)cc5)n4)cc3C2)c1` (centres unmarked) [F3, 1-[(2-isopropyl-5-methyl-phenyl)carbamothioyl]-3-[5-[1-[4-(1,1,2,2,2-pentafluoroethoxy)phenyl]-1,2,4-triazol-3-yl]indan-2-yl]urea] here?
A: A (80-100)

Q: And the mortality at 50 µg/cm2 [1, 5]?
A: 50 to 100%

Q: What about the mortality at 50 µg/cm2 [2, 5] of the same compound?
A: 50 to 100%

Q: Which results are given for `CCc1ccc(C)cc1NC(=S)NC(=O)NC1Cc2ccc(-c3ncn(-c4ccc(OC(F)(F)F)cc4)n3)cc2C1` (centres unmarked) [F5, 1-[(2-Ethyl-5-methyl-phenyl)carbamothioyl]-3-[5-[1-[4-(trifluoromethoxy)phenyl]-1,2,4-triazol-3-yl]indan-2-yl]urea]?
A: mortality at 50 µg/cm2 [1, 5]: 50 to 100%; mortality at 50 µg/cm2 [2, 5]: 50 to 100%

Q: What does the source list for `CCc1cccc(C)c1NC(=S)NC(=O)NC1Cc2ccc(-c3ncn(-c4ccc(OC(F)(F)F)cc4)n3)cc2C1` (centres unmarked) [F6, 1-[(2-Ethyl-6-methyl-phenyl)carbamothioyl]-3-[5-[1-[4-(trifluoromethoxy)phenyl]-1,2,4-triazol-3-yl]indan-2-yl]urea]?
A: mortality at 50 µg/cm2 [1, 5]: 50 to 100%; mortality at 50 µg/cm2 [2, 5]: 50 to 100%

Q: With `CCc1ccccc1NC(=S)NC(=O)NC1Cc2ccc(-c3ncn(-c4ccc(OC(F)(F)F)cc4)n3)cc2C1` (centres unmarked) [F7, 1-[(2-Ethylphenyl)carbamothioyl]-3-[5-[1-[4-(trifluoromethoxy)phenyl]-1,2,4-triazol-3-yl]indan-2-yl]urea] as the compound, how does the mortality at 50 µg/cm2 [1, 5] read?
A: 50 to 100%

Q: And the mortality at 50 µg/cm2 [2, 5]?
A: 50 to 100%

Q: How did the mortality at 50 µg/cm2 [1, 5] turn out when `CCCc1ccc(C)cc1NC(=S)NC(=O)NC1Cc2ccc(-c3ncn(-c4ccc(OC(F)(F)F)cc4)n3)cc2C1` (centres unmarked) [F8, 1-[(5-Methyl-2-propyl-phenyl)carbamothioyl]-3-[5-[1-[4-(trifluoromethoxy)phenyl]-1,2,4-triazol-3-yl]indan-2-yl]urea] was run?
A: 50 to 100%

Q: What about the mortality at 50 µg/cm2 [2, 5] of the same compound?
A: 50 to 100%

Q: `CCc1ccc(C)cc1N1C(=O)CS/C1=N\C(=O)NC1Cc2ccc(-c3ncn(-c4ccc(OC(F)(F)F)cc4)n3)cc2C1` (centres unmarked) [F9, (Z)-1-(3-(2-Ethyl-5-methylphenyl)-4-oxothiazolidin-2-ylidene)-3-(5-(1-(4-(trifluoromethoxy)phenyl)-1H-1,2,4-triazol-3-yl)-2,3-dihydro-1H-inden-2-yl)urea] was tested. Which “YFM % Control (or Mortality) rating” value ([3]; Table ABC) did it give?
A: A (80-100)

Q: And the mortality at 50 µg/cm2 [1, 5]?
A: 50 to 100%

Q: And the mortality at 50 µg/cm2 [2, 5]?
A: 50 to 100%

Q: `CCc1cccc(C)c1N1C(=O)CS/C1=N\C(=O)NC1Cc2ccc(-c3ncn(-c4ccc(OC(F)(F)F)cc4)n3)cc2C1` (centres unmarked) [F10, (Z)-1-(3-(2-Ethyl-6-methylphenyl)-4-oxothiazolidin-2-ylidene)-3-(5-(1-(4-(trifluoromethoxy)phenyl)-1H-1,2,4-triazol-3-yl)-2,3-dihydro-1H-inden-2-yl)urea] was tested. Which “YFM % Control (or Mortality) rating” value ([3]; Table ABC) did it give?
A: A (80-100)

Q: What about the mortality at 50 µg/cm2 [1, 5] of the same compound?
A: 50 to 100%

Q: What about the mortality at 50 µg/cm2 [2, 5] of the same compound?
A: 50 to 100%

Q: What does the source list for `CC(C)c1ccccc1NC(=S)NC(=O)NC1Cc2ccc(-c3ncn(-c4ccc(OC(F)(F)F)cc4)n3)cc2C1` (centres unmarked) [F14, 1-[(2-Isopropylphenyl)carbamothioyl]-3-[5-[1-[4-(trifluoromethoxy)phenyl]-1,2,4-triazol-3-yl]indan-2-yl]urea]?
A: mortality at 50 µg/cm2 [1, 5]: 50 to 100%; mortality at 50 µg/cm2 [2, 5]: 50 to 100%

Q: What does the source list for `CC(C)c1ccccc1N1C(=O)CCS/C1=N\C(=O)NC1Cc2ccc(-c3ncn(-c4ccc(OC(F)(F)F)cc4)n3)cc2C1` (centres unmarked) [FA4, (Z)-1-(3-(2-isopropylphenyl)-4-oxo-1,3-thiazinan-2-ylidene)-3-(5-(1-(4-(trifluoromethoxy)phenyl)-1H-1,2,4-triazol-3-yl)-2,3-dihydro-1H-inden-2-yl)urea]?
A: mortality at 50 µg/cm2 [1, 5]: 50 to 100%; mortality at 50 µg/cm2 [2, 5]: 50 to 100%

Q: For `Cc1ccc(C(C)C)c(N2/C(=N/C(=O)NC3Cc4ccc(-c5ncn(-c6ccc(OC(F)(F)F)cc6)n5)cc4C3)SCCC2C)c1` (centres unmarked) [P16, (Z)-1-(3-(2-Isopropyl-5-methylphenyl)-4-methyl-1,3-thiazinan-2-ylidene)-3-(5-(1-(4-(trifluoromethoxy)phenyl)-1H-1,2,4-triazol-3-yl)-2,3-dihydro-1H-inden-2-yl)urea], which mortality at 50 µg/cm2 [1, 5] is on record?
A: 50 to 100%

Q: And the mortality at 50 µg/cm2 [2, 5]?
A: 50 to 100%

Q: What does the source list for `Cc1ccc(C(C)C)c(N2C(=O)CCS/C2=N\C(=O)NC2Cc3ccc(-c4ncn(-c5ccc(OC(F)(F)F)cc5)n4)cc3C2)c1` (centres unmarked) [P17, (Z)-1-(3-(2-Isopropyl-5-methylphenyl)-4-oxo-1,3-thiazinan-2-ylidene)-3-(5-(1-(4-(trifluoromethoxy)phenyl)-1H-1,2,4-triazol-3-yl)-2,3-dihydro-1H-inden-2-yl)urea]?
A: mortality at 50 µg/cm2 [1, 5]: 50 to 100%; mortality at 50 µg/cm2 [2, 5]: 50 to 100%
